Laboratory results from patent US5484911A, “Nucleoside 5'-diphosphate conjugates of ether lipids” (Health Research, Inc., priority 1993, dated 1996).
Like-named read-outs stand apart in the source and are kept apart here. Values belong to the compound of their own block, whether it stands above or below them.

Tests used:
[1] = Cytotoxicity to uninfected CEM cells (toxicity control of the anti-HIV assay); assay type: cell-based; settings: human; for CC50: CEM cells, read-out: cytotoxicity (IC50); for CC50 at 144 h: uninfected CEM-IW cells, 6 days, XTT, Tables 1-4, read-out: 1C50(Molar) (cytotoxicity)
Excerpt: (§1) FIG. 3. Anti-HIV activity of AZTDP-DL-PTBA from the National Cancer Institute Developmental Therapeutics Program In-Vitro Testing Results; NSC 648540-S/1; Plate 5440; Lab 9N; SSPL:129N; Primary Screen Assay; Test Date, Jan. 21, 1992; Solubility Ind.: 1; Report Date, Apr. 27, 1992; Cell Line, CEM-IW; Solvent: Saline<0.9% (MEDIA).
as §1, with “4.” for “3.”, “AZddUDP-DL-PTBA” for “AZTDP-DL-PTBA”, “NSC: 648541-T/1;” for “NSC 648540-S/1;”, “5466;” for “5440;”, “SSPL: 129N;” for “SSPL:129N;”, “Line:” for “Line,”
(§2) FIG. 5. Anti-HIV activity of ddCDP-DL-PTBA from the National Cancer Institute Developmental Therapeutic Program In-Vitro Testing Results; NSC: D- 652872-A/1; Plate 24; Lab 9N; Primary Screen Assay; Test Date, Jul. 23, 1992; Solubility Ind.: 1; Report Date: Aug. 7, 1992; Cell Line: CEM-IW; Solvent: Saline<0.9% (MEDIA).
(§3) FIG. 6. Anti-HIV activity of AZTDP-DL-PMA from the National Cancer Institute Developmental Therapeutics Program In-Vitro Testing Results; NSC: D- 652873-C/1; Plate 24; Lab 9N; SSPL: 129N; Primary Screen Assay; Test Date, Jul. 23, 1992; Solubility Ind.: 1; Report Date, Sep. 11, 1992; Cell Line: CEM-IW; Solvent: Saline<0.9% (MEDIA).
(§4) The procedure is designed to detect agents acting at any stage of the virus reproductive cycle (Weislow, et al., J. Natl. Cancer Inst. 81, 577, 1989). The assay basically involves the killing of T4 lymphocytes by HIV. Small amounts of HIV are added to cells, and a complete cycle of virus reproduction is necessary to obtain the required cell killing. Agents that interact with virions, cells, or virus gene-products to interfere with viral activities will protect cells from cytolysis. Compounds that degenerate or are rapidly metabolized in the culture conditions may not show activity in this screen. All tests are compared with at least one positive (e.g., AZT-treated) control done at the same time under identical conditions.
(§5) Compound was dissolved in DMSO then diluted 1:100 in cell culture medium before preparing serial half-log10 dilutions. T4 lymphocytes (CEM cell line) were added and after a brief interval HIV-1 was added, resulting in a 1:200 final dilution of the compound. Uninfected cells with the compound served as a toxicity control, and infected and uninfected without the compound served as basic controls. Cultures were incubated at 37° C. in a 5% CO2 atmosphere for 6 days. The tetrazolium salt, XTT, was added to the wells, and cultures were incubated to allow formazan color development by viable cells. Individual wells were analyzed spectrophotometrically to quantitate formazan production, and in addition were viewed microscopically for detection of viable cells and confirmation of protective activity. Drug-treated virus-infected cells were compared with drug-treated noninfected cells and with other appropriate controls (untreated infected and untreated noninfected cells, drug-containing wells without cells, etc.) on the same plate. Data were reviewed in comparison with other tests done at the same time and a determination about activity was made.

HIV-1 [2] = experiment: microbe, parasite or virus in culture; assay type: cell-based; settings: for Conclusion: NCI screen conclusion, Tables 1-4; for conclusion / reported as anti-HIV drug: NCI screening results
Excerpt: as §1
as §1, with “4.” for “3.”, “AZddUDP-DL-PTBA” for “AZTDP-DL-PTBA”, “NSC: 648541-T/1;” for “NSC 648540-S/1;”, “5466;” for “5440;”, “SSPL: 129N;” for “SSPL:129N;”, “Line:” for “Line,”
as §2, §3
Anti-HIV evaluation for the compounds was performed at the National Cancer Institute, National Institute of Health and is presented in FIGS. 3-6.
as §4, §5

HIV-infected CEM cells = settings: liposomal, range over the compounds named, read-out: IC50, antiretroviral activity; cited from earlier work
HIV-infected U937 = settings: liposomal, range over the compounds named, read-out: IC50, antiretroviral activity; cited from earlier work
HIV-1 [3] = settings: cited from earlier work
in vivo = experiment: in vivo; design: species or system Female NIH-Swiss mice; settings: mouse, ip, 100 mg/kg
Method: FIG. 7. Mouse serum concentration of AZT following administration of AZT or AZTDP-DL-PTBA Female NIH-Swiss mice weighing 25-30 g were administered i.p. with AZT (100 mg/kg) or AZTDP-DL-PTBA (394 mg/kg, equivalent to 100 mg/kg AZT). Three mice were sacrificed at the designated time (up to 24 hr) and AZT in the serum was analyzed by a HPLC method.
Female NIH-Swiss mice weighing 25-30 g were administered intraperitoneally (i.p.) with 394 mg/kg of AZTDP-DL-PTBA (equivalent to 100 mg/kg AZT). Three mice were sacrificed at the designated time (up to 24 hours) and AZT in the serum was analyzed by an HPLC method. […] The intact conjugate level in the serum was unable to be checked by the HPLC method.

[4] = Human immunodeficiency virus 1, CCRF-CEM, read-out: 50% of the protection (EC50)
[5] = Human immunodeficiency virus 1, CCRF-CEM, 144 h, read-out: EC50(Molar)

Compound: CCCCCCCCCCCCCCCC(=O)OC(COCCCCCCCCCCCCCC)COP(=O)(O)OP(=O)(O)OC[C@H]1O[C@@H](n2cc(C)c(=O)[nH]c2=O)C[C@@H]1N=[N+]=[N-] (mixture of isomers) [AZTDP-DL-PMA, 3'-Azido-3'-deoxythymidine-5'-diphosphate-rac-1-O-tetradecyl-2-O-palmitoylglycerol]
viability at 180 µM ([1]; uninfected cem cells, dose 1.80 × 10^-4 Molar (Table 4), read-out: UNINFECTED RESPONSE Percent of Control): 109%
viability at 570 µM ([1]; uninfected cem cells, dose 5.70 × 10^-4 Molar (Table 4), read-out: UNINFECTED RESPONSE Percent of Control): 109%
viability at 57 µM ([1]; uninfected cem cells, dose 5.70 × 10^-5 Molar (Table 4), read-out: UNINFECTED RESPONSE Percent of Control): 114%
CC50 [1]: 14000 µM
CC50 at 144 h [1]: 14000 µM
EC50 (HIV-1 [2]; [4]): 57 µM
viability at 180 µM (HIV-1 [2]; Human immunodeficiency virus 1, CCRF-CEM, dose 1.80 × 10^-4 Molar (Table 4), read-out: INFECTED RESPONSE Percent of Control): 66.8%
viability at 570 µM (HIV-1 [2]; Human immunodeficiency virus 1, CCRF-CEM, dose 5.70 × 10^-4 Molar (Table 4), read-out: INFECTED RESPONSE Percent of Control): 90.7%
viability at 57 µM (HIV-1 [2]; Human immunodeficiency virus 1, CCRF-CEM, dose 5.70 × 10^-5 Molar (Table 4), read-out: INFECTED RESPONSE Percent of Control): 55.8%
Conclusion (HIV-1 [2]): CONFIRMED ACTIVE
conclusion / reported as anti-HIV drug (HIV-1 [2]): moderate

Compound: CCCCCCCCCCCCCC(=O)OCC(COP(=O)(O)OC[C@H]1O[C@@H](n2cc(C)c(=O)[nH]c2=O)C[C@@H]1N=[N+]=[N-])OC(=O)CCCCCCCCCCCCC (stereo partly shown) [Dimyristoyl-phosphatidylAZT]
IC50 (HIV-infected CEM cells): 1.7 to 22 µM
IC50 (HIV-infected U937): 0.2 to 12 µM

Compound: CCCCCCCCCCCCCC(=O)OCC(COP(=O)(O)OC[C@@H]1CC[C@H](n2cc(C)c(=O)[nH]c2=O)O1)OC(=O)CCCCCCCCCCCCC (stereo partly shown) [dimyristoylphosphatidylddT]
IC50 (HIV-infected CEM cells): 1.7 to 22 µM
IC50 (HIV-infected U937): 0.2 to 12 µM

Compound: CCCCCCCCCCCCCC(=O)OCC(COP(=O)(O)OC[C@@H]1CC[C@H](n2ccc(N)nc2=O)O1)OC(=O)CCCCCCCCCCCCC (stereo partly shown) [dimyristoylphosphatidylddC]
IC50 (HIV-infected CEM cells): 1.7 to 22 µM
IC50 (HIV-infected U937): 0.2 to 12 µM

Compound: AZT dipalmitoylglycerol
IC50 (HIV-infected CEM cells): 1.7 to 22 µM
IC50 (HIV-infected U937): 0.2 to 12 µM

Compound: CCCCCCCCCCCCCCCCCCSCC(COP(=O)(O)OP(=O)(O)OC[C@H]1O[C@@H](n2ccc(=O)[nH]c2=O)C[C@@H]1N=[N+]=[N-])OC(=O)CCCCCCCCCCCCCCC (mixture of isomers) [AZddUDP-DL-PTBA, 3'-Azido-2',3'-dideoxyuridine-5'-diphosphate-rac-1-S-octadecyl-2-O-palmitoyl-1-thioglycerol]
viability at 180 µM ([1]; uninfected cem cells, dose 1.80 × 10^-4 Molar (Tables 1, 2), read-out: UNINFECTED RESPONSE Percent of Control): 138%
viability at 18 µM ([1]; uninfected cem cells, dose 1.80 × 10^-5 Molar (Tables 1, 2), read-out: UNINFECTED RESPONSE Percent of Control): 98.6%
viability at 1.8 µM ([1]; uninfected cem cells, dose 1.80 × 10^-6 Molar (Tables 1, 2), read-out: UNINFECTED RESPONSE Percent of Control): 96.6%
viability at 580 µM ([1]; uninfected cem cells, dose 5.80 × 10^-4 Molar (Tables 1, 2), read-out: UNINFECTED RESPONSE Percent of Control): 5.01%
viability at 58 µM ([1]; uninfected cem cells, dose 5.80 × 10^-5 Molar (Tables 1, 2), read-out: UNINFECTED RESPONSE Percent of Control): 107%
viability at 5.8 µM ([1]; uninfected cem cells, dose 5.80 × 10^-6 Molar (Tables 1, 2), read-out: UNINFECTED RESPONSE Percent of Control): 94.6%
viability at 0.58 µM ([1]; uninfected cem cells, dose 5.80 × 10^-7 Molar (Tables 1, 2), read-out: UNINFECTED RESPONSE Percent of Control): 94.6%
CC50 [1]: 390 µM
CC50 at 144 h [1]: 590 µM
EC50 (HIV-1 [2]; [5]): 59 µM
EC50 (HIV-1 [2]; [4]): 59 µM
viability at 180 µM (HIV-1 [2]; Human immunodeficiency virus 1, CCRF-CEM, dose 1.80 × 10^-4 Molar (Tables 1, 2), read-out: INFECTED RESPONSE Percent of Control): 103%
viability at 18 µM (HIV-1 [2]; Human immunodeficiency virus 1, CCRF-CEM, dose 1.80 × 10^-5 Molar (Tables 1, 2), read-out: INFECTED RESPONSE Percent of Control): 11.1%
viability at 1.8 µM (HIV-1 [2]; Human immunodeficiency virus 1, CCRF-CEM, dose 1.80 × 10^-6 Molar (Tables 1, 2), read-out: INFECTED RESPONSE Percent of Control): 4.68%
viability at 580 µM (HIV-1 [2]; Human immunodeficiency virus 1, CCRF-CEM, dose 5.80 × 10^-4 Molar (Tables 1, 2), read-out: INFECTED RESPONSE Percent of Control): 7.96%
viability at 58 µM (HIV-1 [2]; Human immunodeficiency virus 1, CCRF-CEM, dose 5.80 × 10^-5 Molar (Tables 1, 2), read-out: INFECTED RESPONSE Percent of Control): 50.6%
viability at 5.8 µM (HIV-1 [2]; Human immunodeficiency virus 1, CCRF-CEM, dose 5.80 × 10^-6 Molar (Tables 1, 2), read-out: INFECTED RESPONSE Percent of Control): 6.2%
viability at 0.58 µM (HIV-1 [2]; Human immunodeficiency virus 1, CCRF-CEM, dose 5.80 × 10^-7 Molar (Tables 1, 2), read-out: INFECTED RESPONSE Percent of Control): 2.69%
Conclusion (HIV-1 [2]): CONFIRMED ACTIVE
conclusion / reported as anti-HIV drug (HIV-1 [2]): moderate

Compound: COCCCCCCCCCCCC(=O)O [13-Oxamyristic acid, 12-methoxydodecanoic acid]
effectiveness among myristate analogs (HIV-1 [3]): the most effective
reverse transcriptase activity, p24 levels, and syncytia formation (HIV-1 [3]): concentration-dependent decrease in reverse transcriptase activity, p24 levels, and syncytia formation

half-life (in vivo): 18.6 min
Compound: Cc1cn([C@H]2C[C@H](N=[N+]=[N-])[C@@H](CO)O2)c(=O)[nH]c1=O [AZT, 3'-azido-3'-deoxythymidine, reference compound]

Compound: CCCCCCCCCCCCCCCCCCSCC(COP(=O)(O)OP(=O)(O)OC[C@@H]1CC[C@H](n2ccc(N)nc2=O)O1)OC(=O)CCCCCCCCCCCCCCC (mixture of isomers) [ddCDP-DL-PTBA, 2',3'-Dideoxycytidine-5'-diphosphate-rac-1-S-octadecyl-2-O-palmitoyl-1-thioglycerol]
viability at 200 µM ([1]; uninfected cem cells, dose 2.00 × 10^-4 Molar (Table 3), read-out: UNINFECTED RESPONSE Percent of Control): 137%
viability at 630 µM ([1]; uninfected cem cells, dose 6.30 × 10^-4 Molar (Table 3), read-out: UNINFECTED RESPONSE Percent of Control): 125%
viability at 63 µM ([1]; uninfected cem cells, dose 6.30 × 10^-5 Molar (Table 3), read-out: UNINFECTED RESPONSE Percent of Control): 130%
CC50 [1]: 2800 µM
CC50 at 144 h [1]: 2800 µM
EC50 (HIV-1 [2]; [5]): 130 µM
EC50 (HIV-1 [2]; [4]): 130 µM
viability at 200 µM (HIV-1 [2]; Human immunodeficiency virus 1, CCRF-CEM, dose 2.00 × 10^-4 Molar (Table 3), read-out: INFECTED RESPONSE Percent of Control): 78%
viability at 630 µM (HIV-1 [2]; Human immunodeficiency virus 1, CCRF-CEM, dose 6.30 × 10^-4 Molar (Table 3), read-out: INFECTED RESPONSE Percent of Control): 98.7%
viability at 63 µM (HIV-1 [2]; Human immunodeficiency virus 1, CCRF-CEM, dose 6.30 × 10^-5 Molar (Table 3), read-out: INFECTED RESPONSE Percent of Control): 10.2%
Conclusion (HIV-1 [2]): CONFIRMED ACTIVE
conclusion / reported as anti-HIV drug (HIV-1 [2]): moderate
TI50(IC/EC) (HIV-1 [2]; ratio IC50/EC50, Tables 2-3): 2.10 × 10^+1
